Source: patent publication US4438115A, “Compositions and methods for treating diseases in circulatory organs” (Chugai Seiyaku Kabushiki Kaisha, priority 1980, dated 1984)
Where a name gives a salt, the structure may show the parent alone.

Tests used:
systemic blood pressure [1] = experiment: Neurogenic hypertension by artery obstruction/stricture (Experiment 3); type: in vivo, beagle (hypertensive); conditions: intravenous, 25 μg/Kg; FIG. 2, FIG. 3
Description: Hypertension was induced in a beagle by exciting the sympathetic nerve due to an obstruction of the bilateral vertebral artery and right common carotid artery, as well as a stricture of the left common carotid artery. The beagle was treated intravenously with 25 μg/Kg of Compounds 1 and 2.

blood pressure = experiment: Blood pressure in unanesthetized SHR rats (Experiment 4); type: in vivo; conditions: oral, 10 mg/Kg; for blood pressure after dosing: 180±5.0 mmHg just before administration
Description: Unanesthetized SHR rats (five rats per group) were administered orally 10 mg/Kg of Compound 1.

heart rate = experiment: Change in heart rate (Experiment 2(b)); type: in vivo, beagle (anesthetized); conditions: for Percent change in heart rate: Table 4, Experiment 2; for effect on heart rate (time course): in words
Description: A beagle was anesthetized by intravenous injection of sodium pentobarbital and under artificial respiration an incision was made in the chest. The various actions of Compounds 1, 2, 3, 5 and 7 of the present invention were checked by the following procedures:
2. Heart rate (HR): The HR was measured by a cardiotachometer using the pulse wave of blood pressure as trigger pulse.
As for the compounds of the present invention, a temporary increase was followed by a gradual decrease which started almost at the same time when a second phase reduction in blood pressure occurred (see FIG. 1).

[2] = Acute toxicity, oral administration to rats for fourteen consecutive days; type: in vivo, male SD strain rats; conditions: 400 mg/Kg, as hydrochloride, male SD rats
Description: The acute toxicity of Compounds Preparation Nos. 1 to 15 was examined by the oral administration of them to male SD strain rats (five rats per group) for fourteen consecutive days. All compounds had low toxicity and none supressed weight gain. No rat died upon administration of Compound 1 or 2 (both as hydrochloride) in a dose of 400 mg/Kg.

systemic blood pressure [3] = experiment: Reduction of systemic blood pressure (Experiment 2(a)); type: in vivo, beagle (anesthetized); conditions: intravenous; for inhibition in vivo at 0.025 mg/kg: Canis lupus familiaris, Table 2, read-out: Average percent reduction in blood pressure; for Average low pressure retention time: Table 3
Description: A beagle was anesthetized by intravenous injection of sodium pentobarbital and under artificial respiration an incision was made in the chest.
1. Systemic blood pressure (SBP): The SBP was measured by a pressure transducer that was connected to a catheter inserted into the right femoral artery.

Compound | Percent change in heart rate (heart rate) [%] | inhibition in vivo at 0.025 mg/kg (systemic blood pressure [3]; 25 μg/kg) [%] | Average low pressure retention time (systemic blood pressure [3]; 25 μg/kg) [min] | change in systemic blood pressure (time course, FIG. 1) (systemic blood pressure [3]; 25 μg/kg, in words) | further results
CCOC(=O)CCCCCCN1CCN(c2ccccc2OC)CC1 [Compound 1, 1-(6-ethoxycarbonylhexyl)-4-(o-methoxyphenyl)piperazine] | -9.6 | 25.5 | 47.3 | the initial temporary reduction was followed by a reduction in the second phase, and the systemic blood pressure was maintained low thereafter | extension of low pressure retention time, hypertensive vs normal beagle (systemic blood pressure [1]): more effective; reduction of heart rate, hypertensive vs normal beagle (systemic blood pressure [1]): more effective; reduction of systemic blood pressure, hypertensive vs normal beagle (systemic blood pressure [1]): more effective; blood pressure after dosing (blood pressure; 1 h): 127±11.6 mmHg; blood pressure after dosing (blood pressure; 2 h): 137±7.6 mmHg; duration of reduced blood pressure (blood pressure; in words): maintained at the reduced level for a satisfactorily long time; deaths upon administration [2]: No rat died; period of maintained low blood pressure compared with the others (systemic blood pressure [3]; 25 μg/kg, in words): maintained the blood pressure at low level for a longer period than did the others
CCOC(=O)CCCCCN1CCN(c2ccccc2OC)CC1 [Compound 2, 1-(5-ethoxycarbonylpentyl)-4-(o-methoxyphenyl)piperazine] | -1.6 | 22.4 | 20.0 | the initial temporary reduction was followed by a reduction in the second phase, and the systemic blood pressure was maintained low thereafter | extension of low pressure retention time, hypertensive vs normal beagle (systemic blood pressure [1]): more effective; reduction of heart rate, hypertensive vs normal beagle (systemic blood pressure [1]): more effective; reduction of systemic blood pressure, hypertensive vs normal beagle (systemic blood pressure [1]): more effective; deaths upon administration [2]: No rat died
COc1ccccc1N1CCN(CCCCCCO)CC1 [C, reference compound] | 8.1 | 12.6 | 14.4 |  | 
CCOC(=O)CCCN1CCN(c2ccccc2OC)CC1 [F, reference compound] | 11.2 | 15.2 | 8.8 | only temporary | effect on heart rate (time course) (heart rate): first increased the heart rate and thereafter the increased heart rate gradually returned to the normal level
CCOC(=O)CCCCCCN1CCN(c2ccccc2OC(C)C)CC1 [Compound 3, 1-(6-ethoxycarbonylhexyl)-4-(o-isopropyloxyphenyl)piperazine] | -4.0 | 22.1 | 22.4 |  | 
CCOC(=O)CCCCN1CCN(c2ccccc2OC)CC1 [Compound 7, 1-(4-ethoxycarbonylbutyl)-4-(o-methoxyphenyl)piperazine] | 13.2 | 19.1 | 13.4 | the initial temporary reduction was followed by a reduction in the second phase, and the systemic blood pressure was maintained low thereafter | 
COc1ccccc1N1CCN(CCCCCO)CC1 [B, reference compound] | 9.9 | 16.1 | 15.0 |  | 
COc1ccccc1N1CCN(CCCCCCCO)CC1 [D, reference compound] | -9.1 | 14.3 | 22.5 |  | 
NNc1nncc2ccccc12 [A, hydralazine hydrochloride, reference compound] |  |  |  |  | significant reduction in blood pressure (systemic blood pressure [3]; 25 μg/Kg, in words): did not exhibit significant reduction in blood pressure
COC(=O)CCCCCCN1CCN(c2ccccc2OC)CC1 [Compound 5, 1-(6-methoxycarbonylhexyl)-4-(o-methoxyphenyl)piperazine] | -2.2 | 23.1 | 18.6 |  | 
CCOC(=O)CCN1CCN(c2ccccc2OC)CC1 [E, reference compound] | 16.8 | 15.1 | 6.8 | only temporary | effect on heart rate (time course) (heart rate): first increased the heart rate and thereafter the increased heart rate gradually returned to the normal level
